# Assays:
# [1] = system: defensin/elafin mRNA in immortalized human keratinocytes (HaCaT cells); experiment: RT-qPCR of innate peptide expression in non-infected immortalized keratinocytes (TNFα/LPS, siRNA, inhibitors); type: cell-based
# [2] = system: HPV E7 oncoprotein with IKK complex or β-catenin destruction complex proteins; experiment: Gaussia princeps luciferase complementation assay (GPCA); type: binding, human papillomavirus / human; conditions: for GPCA signal, interaction with CK1a1: partner CK1a1; for GPCA signal, interaction with CK1 alpha 1: partner CK1 alpha 1, Fig 4M; for GPCA signal, interaction with CK1e: partner CK1e; for GPCA signal, interaction with CK1g1: partner CK1g1; for GPCA signal, interaction with CK1g2: partner CK1g2; for GPCA signal, interaction with CK1g3: partner CK1g3; for GPCA signal, interaction with CK1d: partner CK1d; for GPCA signal, interaction with DVL1: partner DVL1; for GPCA signal, interaction with DVL2: partner DVL2; for GPCA signal, interaction with DVL3: partner DVL3; for GPCA signal, interaction with GSK3B: partner GSK3B; for GPCA signal, interaction with NEMO: partner NEMO, Fig 3K; for GPCA signal, interaction with PPP2CA: partner PPP2CA; for GPCA signal, interaction with PPP2CB: partner PPP2CB
# Text: The coding (or mutated/truncated) sequences of HPV E7 from several alpha and beta genotypes (alpha: HPV16, 18, 33, and 39; beta: HPV8, 38, and 49) were transferred into Gateway-compatible GPCA destination vector pSPICA-N2. The open reading frames (ORFs) encoding proteins involved in IKK or β-catenin destruction complex were obtained from the human ORFeome v7.1 and 8.1 (Dana-Farber Cancer Institute, Boston, MA, USA) and were transferred into pSPICA-N1 plasmid. GPCA expression vectors (pSPICA-N1 and N2) allow the expression of two complementary fragments of the G. princeps luciferase (Gluc1 or Gluc2) linked to the N-terminal ends of tested proteins. All constructions were controlled by Sanger sequencing (GIGA-Genomics platform, University of Liege). GPCA experiments were then performed as extensively described previously[90],[91]. Briefly, HEK-293T cells were simultaneously transfected with 100 ng of pSPICA-N1-IKK or β-catenin destruction complex proteins and 100 ng of pSPICA-N2-E7 using PEI Max (Polysciences, Warrington, PA, USA). After 24 h, cells were washed, lysed and luciferase enzymatic activity was measured for 10 seconds using a Centro LB960 microplate luminometer (Berthold Technologies, Bad Wildbad, Germany). The luciferase assay system was purchased from Promega. As previously described, results were expressed as a luminescence value normalized over the sum of controls [normalized luminescence ratio (NLR)].
molecule,measurement,setting,value
"Cc1ccc(S(=O)(=O)/C=C/C#N)cc1 [BAY 11-7082, reference compound]",TNFα/LPS-induced defensin/elafin mRNA levels,[1],significant decrease
HPV16 E7,"GPCA signal, interaction with Beta-TrCP","[2]; partner Beta-TRCP, Fig 4L, replicate 1",8.518
same,"GPCA signal, interaction with Beta-TrCP","[2]; partner Beta-TRCP, Fig 4L, replicate 2",8.927
same,"GPCA signal, interaction with Beta-TrCP","[2]; partner Beta-TRCP, Fig 4L, replicate 3",6.394
same,"GPCA signal, interaction with Beta-TrCP","[2]; partner Beta-TrCP, Fig 4N, replicate 1",8.216
same,"GPCA signal, interaction with Beta-TrCP","[2]; partner Beta-TrCP, Fig 4N, replicate 2",18.6197
same,"GPCA signal, interaction with Beta-TrCP","[2]; partner Beta-TrCP, Fig 4N, replicate 3",12.6285
same,"GPCA signal, interaction with CK1a1","[2]; Fig 4L, replicate 1",4.195
same,"GPCA signal, interaction with CK1a1","[2]; Fig 4L, replicate 2",4.4237
same,"GPCA signal, interaction with CK1a1","[2]; Fig 4L, replicate 3",4.5837
same,"GPCA signal, interaction with CK1 alpha 1",[2]; replicate 1,4.747
same,"GPCA signal, interaction with CK1 alpha 1",[2]; replicate 2,7.358
same,"GPCA signal, interaction with CK1 alpha 1",[2]; replicate 3,7.5013
same,"GPCA signal, interaction with CK1e","[2]; Fig 4L, replicate 1",2.875
same,"GPCA signal, interaction with CK1e","[2]; Fig 4L, replicate 2",2.433
same,"GPCA signal, interaction with CK1e","[2]; Fig 4L, replicate 3",2.765
same,"GPCA signal, interaction with CK1g1","[2]; Fig 4L, replicate 1",13.8547
same,"GPCA signal, interaction with CK1g1","[2]; Fig 4L, replicate 2",9.7345
same,"GPCA signal, interaction with CK1g1","[2]; Fig 4L, replicate 3",4.265
same,"GPCA signal, interaction with CK1g2","[2]; Fig 4L, replicate 1",8.184
same,"GPCA signal, interaction with CK1g2","[2]; Fig 4L, replicate 2",7.066
same,"GPCA signal, interaction with CK1g2","[2]; Fig 4L, replicate 3",7.286
same,"GPCA signal, interaction with CK1g3","[2]; Fig 4L, replicate 1",8.632
same,"GPCA signal, interaction with CK1g3","[2]; Fig 4L, replicate 2",7.582
same,"GPCA signal, interaction with CK1g3","[2]; Fig 4L, replicate 3",7.146
same,"GPCA signal, interaction with CK1d","[2]; Fig 4L, replicate 1",4.409
same,"GPCA signal, interaction with CK1d","[2]; Fig 4L, replicate 2",3.975
same,"GPCA signal, interaction with CK1d","[2]; Fig 4L, replicate 3",4.309
same,"GPCA signal, interaction with DVL1","[2]; Fig 4L, replicate 1",3.768
same,"GPCA signal, interaction with DVL1","[2]; Fig 4L, replicate 2",3.207
same,"GPCA signal, interaction with DVL1","[2]; Fig 4L, replicate 3",4.087
same,"GPCA signal, interaction with DVL2","[2]; Fig 4L, replicate 1",1.678
same,"GPCA signal, interaction with DVL2","[2]; Fig 4L, replicate 2",1.485
same,"GPCA signal, interaction with DVL2","[2]; Fig 4L, replicate 3",1.904
same,"GPCA signal, interaction with DVL3","[2]; Fig 4L, replicate 1",1.994
same,"GPCA signal, interaction with DVL3","[2]; Fig 4L, replicate 2",1.934
same,"GPCA signal, interaction with DVL3","[2]; Fig 4L, replicate 3",1.325
same,"GPCA signal, interaction with GSK3B","[2]; Fig 4L, replicate 1",9.854
same,"GPCA signal, interaction with GSK3B","[2]; Fig 4L, replicate 2",8.937
same,"GPCA signal, interaction with GSK3B","[2]; Fig 4L, replicate 3",8.081
same,"GPCA signal, interaction with NEMO",[2]; replicate 1,28.7366
same,"GPCA signal, interaction with NEMO",[2]; replicate 2,37.4793
same,"GPCA signal, interaction with NEMO",[2]; replicate 3,29.9172
same,"GPCA signal, interaction with PPP2CA","[2]; Fig 4L, replicate 1",1.175
same,"GPCA signal, interaction with PPP2CA","[2]; Fig 4L, replicate 2",1.457
same,"GPCA signal, interaction with PPP2CA","[2]; Fig 4L, replicate 3",0.9985
same,"GPCA signal, interaction with PPP2CB","[2]; Fig 4L, replicate 1",2.065
same,"GPCA signal, interaction with PPP2CB","[2]; Fig 4L, replicate 2",1.7166
same,"GPCA signal, interaction with PPP2CB","[2]; Fig 4L, replicate 3",1.3201

# — article PMC8885657, “HPV infection alters vaginal microbiome through down-regulating host mucosal innate peptides used by Lactobacilli as amino acid sources” (Nature Communications, 2022)
